Where a name gives a salt, the structure may show the parent alone.

The first assay has as its system cycloxygenase.
Assay: not given
The following applies: in words, prior-art compound; cited from earlier work.
On to `CC(C)(C)c1cc(C=C2SC(=NC#N)NC2=O)cc(C(C)(C)C)c1O`, for which the cycloxygenase inhibiting action was 5-lipoxygenase and cycloxygenase inhibiting actions.

A further assay relates to 5-lipoxygenase.
Assay: not given
The following applies: in words, prior-art compound; cited from earlier work.
As for `CC(C)(C)c1cc(C=C2SC(=NC#N)NC2=O)cc(C(C)(C)C)c1O`, the 5-lipoxygenase inhibiting action is 5-lipoxygenase and cycloxygenase inhibiting actions.

The target in another assay is aldose reducing enzyme (Homo sapiens, UniProt P15121). Description: Aldose reducing enzyme inhibiting activity (method of Hayman et al.). Type of assay: biochemical, Recombinant. Conditions: 1.0×10^-7 mol concentration level of the tested compound; human recombinant enzyme; read-out: Inhibition rate (%).
As a reminder, the inhibition is the percentage by which the read-out fell short of the control. In the case of `CC(=Cc1ccccc1)C=C1SC(=NC#N)N(C)C1=O` [Example 3, 2-(N-cyanoimino)-3-methyl-5-(2-methyl-3-phenylpropenylidene) thiazolidin-4-one], the inhibition at 0.1 µM was determined as 12%.

Consider `N#CN=C1NC(=O)C(=Cc2ccc3ccccc3c2)S1` [Example 5, 2-(N-cyanoimino)-5-(2-naphthylmethylene) thiazolidin-4-one], for which the inhibition at 0.1 µM worked out at 44%.

For the molecule `COc1ccccc1C=CC=C1SC(=NC#N)NC1=O` [Example 12, 2-(N-cyanoimino)-5-[3-(2-methoxyphenyl)propenylidene] thiazolidin-4-one], the inhibition at 0.1 µM was 84%.

On to `CCC(=C1SC(=NC#N)NC1=O)c1ccccc1` [Example 14, 2-(N-cyanoimino)-5-(1-phenylpropylidene) thiazolidin-4-one], for which the inhibition at 0.1 µM was 12%.

Consider `COc1cc(C=C2SC(=NC#N)NC2=O)ccc1O` [Example 10, 2-(N-cyanoimino)-5-(4-hydroxy-3-methoxybenzylidene) thiazolidin-4-one], for which the inhibition at 0.1 µM was 100%.

Take `N#CN=C1NC(=O)C(=Cc2ccccc2)S1` [Example 6, 5-benzylidene-2-(N-cyanoimino)-4-oxythiazolidine]: the inhibition at 0.1 µM turned out to be 32%.

In the case of `CC(=C1SC(=NC#N)NC1=O)c1ccc2ccccc2c1` [Example 15, 2-(N-cyanoimino)-5-[1-(2-naphthyl)ethylidene] thiazolidin-4-one], the inhibition at 0.1 µM stood at 64%.

As for `N#CN=C1NC(=O)C(=Cc2ccc3c(c2)OCO3)S1` [Example 4, 2-(N-cyanoimino)-5-(3,4-methylenedioxybenzylidene) thiazolidin-4-one], the inhibition at 0.1 µM stood at 44%.

`N#CN=C1NC(=O)C(=Cc2cccc3ccccc23)S1` [Example 9, 2-(N-cyanoimino)-5-(1-naphthylmethylene) thiazolidin-4-one]: the inhibition at 0.1 µM amounted to 20%.

Turning to `COc1ccc2cc(C=C3SC(=NC#N)NC3=O)ccc2c1` [Example 8, 2-(N-cyanoimino)-5-[2-(6-methoxynaphthyl)methylene]thiazolidin-4-one], the inhibition at 0.1 µM stood at 68%.

`CC(=Cc1ccccc1)C=C1SC(=NC#N)NC1=O` [Example 1, 2-(N-cyanoimino)-5-(2-methyl-3-phenylpropenylidene) thiazolidin-4-one]: the inhibition at 0.1 µM is 72%.

Regarding `Cc1cccc(C=C2SC(=NC#N)NC2=O)c1` [Example 11, 2-(N-cyanoimino)-5-(3-methylbenzylidene) thiazolidin-4-one], the inhibition at 0.1 µM stood at 52%.

`N#CN=C1NC(=O)C(=CC=Cc2ccccc2)S1` [Example 7, 2-(N-cyanoimino)-5-(3-phenylpropenylidene) thiazolidin-4-one]: the inhibition at 0.1 µM is 44%.

With `CC(=Cc1ccccc1)C=C1SC(=NC#N)N(CC(=O)O)C1=O` [Example 2, 2-(N-cyanoimino)-5-(2-methyl-3-phenylpropenylidene)-4-oxo-3-thiazolidine acetic acid], the inhibition at 0.1 µM was 100%.

The assay is the same for the next values; noted with them: read-out: Inhibition rate (%).
Take `CC(=C1SC(=NC#N)NC1=O)c1ccccc1` [Example 13, 2-(N-cyanoimino)-5-(1-phenylethylidene) thiazolidin-4-one potassium salt]: the inhibition at 0.1 µM amounted to 60%.

The test system of a further assay is aldose reducing enzyme.
Assay: not given
The following applies: in words, prior-art compound; cited from earlier work.
Regarding `CC(C)(C)c1cc(C=C2SC(=NC#N)NC2=O)cc(C(C)(C)C)c1O`, the “aldose reducing enzyme inhibiting action” value is “no aldose reducing enzyme inhibiting action”.

Source of the values: US5750712A, “2-(n-cyanoimino)-thiazolidin-4-one derivatives” (priority 1994, dated 1998).
